US20240041042A1, “1-(PYRIDYL)-5-AZINYLPYRAZOLE DERIVATIVES, AND THEIR USE FOR CONTROL OF UNDESIRED PLANT GROWTH” (Bayer Aktiengesellschaft, priority 2020, published 2024)
Where two headings read alike, the source gives them in different places.

What was measured:
Format in all cases: in vivo
[1] = test system: Amaranthus retroflexus (AMARE); experiment: Pre-emergence herbicidal action against AMARE; conditions: 320 g/ha, visual scoring after about 3 weeks vs untreated controls
Procedure, shortened: (§1)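 Dosages of 320 g/ha or less; pre-emergence; WP or EC in aqueous spray, 0.5% additive, 600 l/ha; greenhouse; visual % effect after ~3 wk relative to control pots.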

[2] = test system: Matricaria inodora (MATIN); experiment: Pre-emergence herbicidal action against MATIN; conditions: dosage 320 g/ha
Procedure, shortened: as §1

[3] = test system: Setaria viridis (SETVI); experiment: Pre-emergence herbicidal action against SETVI
Procedure, shortened: as §1

[4] = test system: Brassica napus (BRSNW); conditions: crop plant compatibility, in comparison to untreated controls
Procedure, shortened: (§2)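 Crop injury rated visually in percent against untreated plants roughly 3 weeks after treatment (0% no effect, 100% plants dead). Compounds, as WP or EC with 0.5% additive in 600 l/ha water, were applied to the covering soil right after sowing; greenhouse growth. Suffixes a, b, c denote different dosages.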

[5] = test system: Glycine max (GLXMA); conditions: crop plant compatibility
Procedure, shortened: as §2

[6] = test system: Oryza sativa (ORYSA); conditions: crop plant compatibility; for Pre-emergence action against ORYSA in %: 80 g/ha, in comparison to untreated controls
Procedure, shortened: as §2

[7] = test system: Triticum aestivum (TRZAS); conditions: crop plant compatibility; for Pre-emergence action against TRZAS in %: in comparison to untreated controls
Procedure, shortened: as §2

[8] = test system: Zea mays (ZEAMX); conditions: crop plant compatibility; for Pre-emergence action against ZEAMX in %: 80 g/ha, in comparison to untreated controls
Procedure, shortened: as §2

[9] = test system: Abutilon theophrasti (ABUTH); experiment: Post-emergence herbicidal action against ABUTH; conditions: 320 g/ha, visual rating about 3 weeks after treatment vs untreated controls (100% = plants have died, 0% = like control plants)
Procedure, shortened: (§3)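 Doses of 320 g/ha or lower, suffixes a, b and c marking different dosages, were applied post-emergence at the one-leaf stage in 600 l/ha water with 0.5% additive. Damage was assessed visually after about 3 weeks in the greenhouse.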

[10] = test system: Alopecurus myosuroides (ALOMY); experiment: Post-emergence herbicidal action against ALOMY; conditions: visual rating about 3 weeks after treatment vs untreated controls (100% = plants have died, 0% = like control plants)
Procedure, shortened: as §3

[11] = test system: Echinochloa crus-galli (ECHCG); experiment: Post-emergence herbicidal action against ECHCG; conditions: dosage 320 g/ha
Procedure, shortened: as §3

[12] = test system: Lolium rigidum (LOLRI); experiment: Post-emergence herbicidal action against LOLRI; conditions: dosage 320 g/ha
Procedure, shortened: as §3

[13] = test system: Pharbitis purpurea (PHBPU); experiment: Post-emergence herbicidal action against PHBPU
Procedure, shortened: as §3

[14] = test system: Polygonum convolvulus (POLCO); experiment: Post-emergence herbicidal action against POLCO
Procedure, shortened: as §3

[15] = test system: Setaria viridis (SETVI); experiment: Post-emergence herbicidal action against SETVI
Procedure, shortened: as §3

[16] = test system: Verconica persica (VERPE); experiment: Post-emergence herbicidal action against VERPE; conditions: 320 g/ha, VERPE
Procedure, shortened: as §3

[17] = test system: Oryza sativa (ORYSA); conditions: crop plant compatibility
Procedure, shortened: (§4)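 Test crops were treated 2 to 3 weeks after sowing, once they reached one leaf, by spraying compound in water with 0.5% additive at 600 l/ha. Visual scoring compared them with untreated controls roughly 3 weeks on, and appendices a, b and c denote different doses.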

[18] = test system: Triticum aestivum (TRZAS); conditions: crop plant compatibility, 80 g/ha, effect vs untreated controls
Procedure, shortened: as §4

[19] = test system: Zea mays (ZEAMX)
Procedure, shortened: as §4

[20] = test system: Alopecurus myosuroides (ALOMY); experiment: Pre-emergence herbicidal action against ALOMY; conditions: scored visually after about 3 weeks, 100% = plants have died
Procedure, shortened: as §1

[21] = test system: Avena fatua (AVEFA); experiment: Pre-emergence herbicidal action against AVEFA; conditions: 320 g/ha, visual scoring after about 3 weeks vs untreated controls
Procedure, shortened: as §1

[22] = test system: Digitaria sanguinalis (DIGSA); experiment: Pre-emergence herbicidal action against DIGSA
Procedure, shortened: as §1

[23] = test system: Echinochloa crus-galli (ECHCG); experiment: Pre-emergence herbicidal action against ECHCG; conditions: dosage 320 g/ha
Procedure, shortened: as §1

[24] = test system: Lolium rigidum (LOLRI); experiment: Pre-emergence herbicidal action against LOLRI; conditions: dosage 320 g/ha
Procedure, shortened: as §1

[25] = test system: Polygonum convolvulus (POLCO); experiment: Pre-emergence herbicidal action against POLCO
Procedure, shortened: as §1

[26] = test system: Verconica persica (VERPE); experiment: Pre-emergence herbicidal action against VERPE; conditions: dosage 320 g/ha
Procedure, shortened: as §1

[27] = test system: Viola tricolor (VIOTR); experiment: Pre-emergence herbicidal action against VIOTR; conditions: 320 g/ha, Viola tricolor
Procedure, shortened: as §1

[28] = test system: Avena fatua (AVEFA); experiment: Post-emergence herbicidal action against AVEFA; conditions: visual rating about 3 weeks after treatment
Procedure, shortened: as §3

[29] = test system: Digitaria sanguinalis (DIGSA); experiment: Post-emergence herbicidal action against DIGSA; conditions: visual rating about 3 weeks after treatment
Procedure, shortened: as §3

[30] = test system: Viola tricolor (VIOTR); experiment: Post-emergence herbicidal action against VIOTR; conditions: 320 g/ha
Procedure, shortened: as §3

[31] = 80 g/ha, effect in comparison to untreated controls
[32] = 20 g/ha, effect vs untreated controls

## CCOC(=O)COc1nn(-c2cccc(C)n2)c(-c2ccc(F)nc2)c1Br [Example I-312]
[1]
  Pre-emergence action against AMARE in %: 90%
[2]
  Pre-emergence action against MATIN in %: 90%
[3]; dosage 320 g/ha
  Pre-emergence action against SETVI in %: 90%
[4]; 80 g/ha
  Pre-emergence action against BRSNW in %: 20%
[5]; pre-emergence, 80 g/ha, in comparison to untreated controls
  Pre-emergence action against GLXMA in %: 20%
[6]
  Pre-emergence action against ORYSA in %: 20%
[7]; 80 g/ha
  Pre-emergence action against TRZAS in %: 10%
[7]; 320 g/ha
  Pre-emergence action against TRZAS in %: 20%
[8]
  Pre-emergence action against ZEAMX in %: 20%
[9]
  Post-emergence action against ABUTH in %: 80%
[10]; 320 g/ha
  Post-emergence action against ALOMY in %: 90%
[11]
  Post-emergence action against ECHCG in %: 90%
[12]
  Post-emergence action against LOLRI in %: 90%
[13]; dosage 80 g/ha
  Post-emergence action against PHBPU in %: 80%
[13]; dosage 320 g/ha
  Post-emergence action against PHBPU in %: 90%
[14]; dosage 80 g/ha
  Post-emergence action against POLCO in %: 80%
[14]; dosage 320 g/ha
  Post-emergence action against POLCO in %: 80%
[15]; dosage 320 g/ha
  Post-emergence action against SETVI in %: 80%
[16]
  Post-emergence action against VERPE in %: 80%
[17]; [31]
  Post-emergence action against ORYSA in %: 10%
[18]
  Post-emergence action against TRZAS in %: 20%
[19]; crop plant compatibility, 80 g/ha, effect vs untreated controls
  Post-emergence action against ZEAMX in %: 10%

## COC(=O)[C@@H](C)Oc1nn(-c2ccc(F)cn2)c(-c2ccc(F)nc2)c1Br [Example I-11]
[20]; 80 g/ha
  Pre-emergence action against ALOMY: 90%
[20]; 320 g/ha
  Pre-emergence action against ALOMY: 100%
[1]
  Pre-emergence action against AMARE in %: 100%
[21]
  Pre-emergence action against AVEFA in %: 90%
[22]; 80 g/ha, visual scoring after about 3 weeks vs untreated controls
  Pre-emergence action against DIGSA in %: 100%
[22]; dosage 320 g/ha
  Pre-emergence action against DIGSA in %: 100%
[23]
  Pre-emergence action against ECHCG in %: 80%
[24]
  Pre-emergence action against LOLRI in %: 100%
[2]
  Pre-emergence action against MATIN in %: 90%
[25]; dosage 80 g/ha
  Pre-emergence action against POLCO in %: 90%
[25]; dosage 320 g/ha
  Pre-emergence action against POLCO in %: 90%
[3]; dosage 80 g/ha
  Pre-emergence action against SETVI in %: 90%
[3]; dosage 320 g/ha
  Pre-emergence action against SETVI in %: 100%
[26]
  Pre-emergence action against VERPE in %: 90%
[27]
  Pre-emergence action against VIOTR in %: 100%
[4]; 20 g/ha
  Pre-emergence action against BRSNW in %: 10%
[4]; 80 g/ha
  Pre-emergence action against BRSNW in %: 20%
[5]; [32]
  Pre-emergence action against GLXMA: 10%
[6]; [32]
  Pre-emergence action against ORYSA: 0%
[6]
  Pre-emergence action against ORYSA in %: 20%
[7]; [32]
  Pre-emergence action against TRZAS: 0%
[8]; [32]
  Pre-emergence action against ZEAMX: 10%
[8]
  Pre-emergence action against ZEAMX in %: 10%
[10]; 80 g/ha
  Post-emergence action against ALOMY in %: 90%
[10]; 320 g/ha
  Post-emergence action against ALOMY in %: 90%
[28]; 80 g/ha
  Post-emergence action against AVEFA in %: 80%
[28]; 320 g/ha
  Post-emergence action against AVEFA in %: 90%
[29]; 80 g/ha
  Post-emergence action against DIGSA in %: 90%
[29]; 320 g/ha
  Post-emergence action against DIGSA in %: 90%
[11]
  Post-emergence action against ECHCG in %: 80%
[12]
  Post-emergence action against LOLRI in %: 80%
[13]; dosage 320 g/ha
  Post-emergence action against PHBPU in %: 90%
[15]; dosage 80 g/ha
  Post-emergence action against SETVI in %: 80%
[15]; dosage 320 g/ha
  Post-emergence action against SETVI in %: 90%
[16]
  Post-emergence action against VERPE in %: 80%
[30]
  Post-emergence action against VIOTR in %: 80%
[17]; [32]
  Post-emergence action against ORYSA in %: 0%
[17]; [31]
  Post-emergence action against ORYSA in %: 0%
[17]; 320 g/ha, effect in comparison to untreated controls
  Post-emergence action against ORYSA in %: 10%
[19]; 20 g/ha, ZEAMX, effect in comparison to untreated controls
  Post-emergence action against ZEAMX in % (crop plant compatibility): 10%
